According to US6562872B1, “Emulsion of perfluoroorganic compounds for medical purposes, a process for the preparation thereof and methods for treating and preventing diseases with the use thereof” (Otkrytoe Aktsionernoe Obschestvo Naucho-Proizvodstven-Naya …, priority 2001, dated 2003):
Values after ≈ are worked out from the molar mass of the structure shown.

What was measured:
[1] = Solubility of PFOCs in olive oil lipids; type: physicochemical; conditions: oil or lipid, 37° C.
[2] = Solubility of PFOCs in membranes of erythrocytes; type: physicochemical; conditions: 37° C.

## FC(F)(F)C(F)(F)C(F)(F)N(C(F)(F)C(F)(F)C(F)(F)F)C(F)(F)C(F)(F)C(F)(F)F [Perfluorotripropylamine]
[1]
  solubility: 5.1 mM (≈ 2660 µg/mL)
[2]
  Solubility in membranes: 0.3 ml per kg of dry membranes

## FC(F)(F)C1(F)C(F)(F)C(F)(F)C(F)(N2C(F)(F)C(F)(F)C(F)(F)C(F)(F)C2(F)F)C(F)(F)C1(F)F (centres unmarked) [perfluoro-N-(4-methylcyclohexyl)-piperidine]
[1]
  solubility: 7.6 mM (≈ 4520 µg/mL)
[2]
  Solubility in membranes: 0.5 ml per kg of dry membranes

## FC1(F)C(F)(F)C(F)(F)C2(F)C(F)(F)C(F)(F)C(F)(F)C(F)(F)C2(F)C1(F)F (centres unmarked) [Perfluorodecalin (PFD), perfluorodecalin]
[1]
  solubility: 26 mM (≈ 12000 µg/mL)
[2]
  Solubility in membranes: 2.0 ml per kg of dry membranes

## FC(F)(F)C(F)(F)C(F)(F)C(F)(F)N(C(F)(F)C(F)(F)C(F)(F)C(F)(F)F)C(F)(F)C(F)(F)C(F)(F)C(F)(F)F [Perfluorotributylamine]
[1]
  solubility: 1.2 mM (≈ 805 µg/mL)
[2]
  Solubility in membranes: 0.08 ml per kg of dry membranes
